Eight compounds from PubChem BioAssay (NCI) can be followed below.

Test in all cases: DTP human tumour cell line panel, 48 h
The subject of experiment [1] is HL-60(TB) leukemia.
Experiment [2] concerns KM12 colon.
Experiment [3] has as its system T-47D breast.
Experiment [4] deals with HT29 colon.
The test system of experiment [5] is MDA-N.
For experiment [6], the system named is M14 melanoma.
Experiment [7] deals with COLO 205 colon.
For experiment [8], the system named is MOLT-4 leukemia.
In experiment [9] the test system is SK-MEL-5 melanoma.
In experiment [10] the test system is K-562 leukemia.
Experiment [11] has as its system BT-549 breast.
In experiment [12] the test system is SF-295 CNS.
The subject of experiment [13] is U251 CNS.

“And” between values parts separate entries of the source, which are not always exact repeats. Equal values may be shown once.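 96-well plates; 48 h exposure; 5 concentrations. Endpoints by linear interpolation between flanking doses. Not reached: highest tested concentration assigned. GI50 = concentration required for 50% inhibition of growth. Definition used: TGI = concentration required for complete inhibition of growth.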

By GI50 is commonly meant the concentration at which growth is held to half of that of the control. The TGI is the concentration giving total growth inhibition. Read a low TGI as more potent growth arrest. Regarding `CC(=O)OCC1OC(Sc2nc(-c3ccc(C)cc3)c(C#N)c(=O)n2C2OC(COC(C)=O)C(OC(C)=O)C(OC(C)=O)C2OC(C)=O)C(OC(C)=O)C(OC(C)=O)C1OC(C)=O` (stereo unspecified), the GI50 was 25.5 µM in experiment [1]; > 100 µM and 38.7 µM in [2]; > 100 µM and 10.1 µM in [5]; > 100 µM and 43.3 µM in [6]; > 100 µM and 10.3 µM in experiment [7]; > 100 µM in experiment [10]. Moreover, the TGI is 76.6 µM in experiment [1]; > 100 µM in experiment [2]; > 100 µM in experiment [3]; > 100 µM in experiment [4]; > 100 µM and 64.6 µM in experiment [5]; > 100 µM in [6]. Moreover, the concentration for total growth inhibition (TGI) in experiment [7], in experiment [8], in experiment [9], in [10], in [11] and in experiment [12] was > 100 µM in each case. Besides, the TGI in [13] was > 100 µM.
In the case of `CCCCC/C=C1\CCC(CN2CCOCC2)C1=O` (stereo unspecified), the concentration for total growth inhibition (TGI) in experiment [1] was found to be 24.2 µM; in [2] it was 10.7 µM; in experiment [3], 9.95 µM; in experiment [4], 35.7 µM; in experiment [5], 25.4 µM; in [6], 16.9 µM. In addition, the TGI in [7] came out at 13.7 µM; in experiment [8] it was 7.55 µM; in experiment [9], 31.1 µM; in experiment [10], 7 µM; in [11] it was 32.3 µM; in experiment [12] it was 32.3 µM. In [13], the TGI was found to be 23.8 µM.
Regarding `S=C(NNC1=NCCCCN1)Nc1ccccc1`, the total growth inhibition concentration (TGI) in experiment [1], in [2], in experiment [3], in experiment [4], in [5] and in [6] was > 100 µM throughout. The TGI in experiment [7], in experiment [8], in [9], in [10], in experiment [11] and in [12] was > 100 µM each time. Also, the concentration for total growth inhibition (TGI) in experiment [13] was > 100 µM.
Consider `CCCC/C=C1\CCC(CN2CCOCC2)C1=O` (stereo unspecified), for which the GI50 in [1] was 0.566 µM. Also, the total growth inhibition concentration (TGI) amounted to 5.61 µM in experiment [1]; 7.38 µM in experiment [2]; 31.3 µM in [3]; 12.1 µM in experiment [4]; 22.7 µM in experiment [5]; 10.3 µM in experiment [6]. Moreover, the TGI amounted to 9.49 µM in [7]; 10.7 µM in experiment [8]; 26.9 µM in experiment [9]; 5.82 µM in experiment [10]; 9.47 µM in [11]; 29.8 µM in [12]. The concentration for total growth inhibition (TGI) in experiment [13] was 8.35 µM.
On to `N#C/C(=C\N1CCNC1=S)C(=O)c1ccc2ccccc2c1`, for which the TGI in [1], in [2], in experiment [3], in experiment [4], in [5] and in [6] was > 100 µM throughout. The concentration for total growth inhibition (TGI) in experiment [7], in [8], in experiment [9], in [10], in [11] and in experiment [12] was > 100 µM each time. Besides, the TGI in experiment [13] was > 100 µM.
Regarding `COC(=O)c1ccc(/C=N/c2cc(C)nn2-c2ccccc2)cc1`, the TGI was > 100 µM in [1]; > 100 µM in [2]; 58 µM in experiment [3]; 92.1 µM in experiment [4]; > 100 µM in [5]; > 100 µM in experiment [6]. The total growth inhibition concentration (TGI) is 43 µM in experiment [7]; > 100 µM in experiment [8]; 83.2 µM in [9]; > 100 µM in experiment [10]; > 100 µM in experiment [11]; > 100 µM in experiment [12]. The TGI in experiment [13] was > 100 µM.
On to `Cc1occc1C(=S)Nc1ccc(Cl)c(C(=O)OCC2CC2)c1`, for which the TGI is 75.3 µM in experiment [1]; 96.3 µM in experiment [2]; > 100 µM in experiment [3]; > 100 µM in experiment [4]; > 100 µM in experiment [5]; > 100 µM in [6]. Moreover, the concentration for total growth inhibition (TGI) in [7] is > 100 µM; in [8], > 100 µM; in experiment [9], > 100 µM; in [10], > 100 µM; in [11], 81.5 µM; in experiment [12], > 100 µM. The TGI in experiment [13] is > 100 µM.
Take `C1CSCCSS[C@@H]2CCCCC2SC1` (stereo partly specified): the TGI in experiment [1], in experiment [2], in experiment [3], in experiment [4], in experiment [5] and in experiment [6] was > 100 µM each time. Moreover, the TGI in experiment [7], in experiment [8], in [9], in experiment [10], in experiment [11] and in experiment [12] was > 100 µM each time. In addition, the concentration for total growth inhibition (TGI) in [13] is > 100 µM.
